Assays:
Type in all cases: cell-based, human
[1] = tested on: IL-6 release from SZ95 sebocytes; experiment: IL-6 release ELISA in SZ95 sebocytes; conditions: all sebocytes (SZ95-SF and SZ95-S), 0.1 μM insulin
Description: (§1) Immortalized human SZ95 sebocytes (Zouboulis et al., 1999), showing morphologic, phenotypic, and functional characteristics of normal human sebocytes, were cultured in 5% CO2 at 37° C. in Sebomed basal medium, 1% L-glutamine, 1% penicillin/streptomycin, 5 ng/mL recombinant human epidermal growth factor, and 1 mM CaCl2, with or without 10% FBS supplement. All experiments were performed at least in triplicate.
SZ95 culture supernatants were collected and centrifuged to remove cell debris. Aliquots were then stored at −80° C. until use. IL-6 protein level was determined by ELISA (Life Technologies, Invitrogen; Milan, Italy), and normalized for cell number. In stratum corneum specimens, concentration of IL-1α was assessed by ELISA (Life Technologies, Invitrogen, Milan, Italy), and normalized against the total amount of soluble protein. Levels of IL-1α were reported as pg/pg protein. The results represent the average of three independent experiments performed in triplicate.
To determine the effect of insulin exposure on inflammatory cytokine release in sebocytes at different stages of differentiation, IL-6 release was measured by ELISA following exposure of SZ95-SF and SZ95-S sebocytes to 0.1 μM insulin.

SZ95 sebocytes [2] = experiment: LC-MS analysis of 5-HETE and 15-HETE in SZ95 cell media; conditions: SZ95-SF and SZ95-S sebocytes, insulin and NAC-GED0507
Description: as §1
Levels of the polyunsaturated fatty acids 5-hydroxyeicosatetraenoic acid (5-HETE) and 15-hydroxyeicosatetraenoic acid (15-HETE) in cell media were measured by HPLC\MS\MS. Chromatographic separation was carried out using an Agilent Technologies 1200 HPLC Liquid Chromatography System (Palo Alto, Calif., USA) with a Symmetry C18 column ([…], 100 mm×2.1 mm; Waters, Milford, Mass., USA) as previously reported (Furugen A et al., (2015) “Simultaneous quantification of leukotrienes and hydroxyeicosatrienoic acids in cell culture medium using liquid chromatography/tandem mass spectrometry” Biomed Chromatogr 29:1084-1093). […] For each compound to be quantified, an internal standard was selected and a linear curve was generated where the ratio of analyte standard peak area to internal standard peak area was plotted against the amount of analyte standard. The results were calculated as nM/106 cells and then reported as % variation vs control values. […]

[3] = tested on: SREBP-1, FAS, FADS-2, SCD-1, DGAT1 mRNA in SZ95 sebocytes; experiment: Real-time RT-PCR of lipidogenic gene mRNA in SZ95 sebocytes
Description: as §1
Total RNA was isolated using the Aurum™ Total RNA Mini kit (Bio-Rad Laboratories Srl; Milan, Italy). Total RNA quantity, purity, and the absence of ribonuclease activity were assessed by OD260/280 absorbance measurements and by agarose gel electrophoresis. Total RNA samples were stored at −80° C. until use. Following DNAse I treatment, cDNA was synthesized using a mix of oligo-dT and random primers and RevertAid™ First Strand cDNA synthesis kit (Thermo Fisher Scientific; Monza, Italy). Quantitative real time RT-PCR was performed in a total volume of 15 μL with SYBR Green PCR Master Mix (Bio-Rad Laboratories Srl) and 200 nM concentration of each primer.
Reactions were carried out in triplicate using an iQ™ 5 iCycler supplied with the iQ™ 5 Real-Time Detection System (Bio-Rad Laboratories; Hercules, Calif., USA). Melt curve analysis was performed to confirm the specificity of the amplified products. Expression of mRNA species was normalized to the expression of GAPDH mRNA by the change in the Δ cycle threshold (ΔCt) method and calculated based on 2^−Δct.
SZ95-S and SZ95-SF sebocytes were cultured for an additional 24 hours in the presence of 0.1 μM insulin and/or 1 mM NAC-GED0507.

lipoxygenase (LOX) = experiment: Lipoxygenase activity assay in SZ95 sebocyte lysates; conditions: SZ95-S and SZ95-SF cells, 0.1 μM insulin and NAC-GED0507
Description: Immortalized human SZ95 sebocytes (Zouboulis et al., 1999), showing morphologic, phenotypic, and functional characteristics of normal human sebocytes, were cultured in 5% CO2 at 37° C. in Sebomed basal medium, 1% L-glutamine, 1% penicillin/streptomycin, 5 ng/mL recombinant human epidermal growth factor, and 1 mM CaCl2, with or without 10% FBS supplement. All experiments were performed at least in triplicate. Lipoxygenase (LOX) activity was evaluated spectrophotometrically by monitoring the conversion of the LOX substrate linoleic acid (LA) to the corresponding hydroperoxy fatty acid. SZ95 sebocytes were lysed in 50 mM Tris/HCl buffer (pH 7.4) (Merck; Darmstadt, Germany) by repeated freezing in liquid nitrogen and thawing. Protein content was determined by Bradford assay using bovine serum albumin as the protein standard. Aliquots of supernatants containing 50 μg of protein were added to Tris/HCl buffer containing 200 μM LA in a final volume of 1 mL. All reactions were performed in 1-cm path length quartz cuvettes. The absorbance at 234 nm was recorded at room temperature for 10 minutes using a Lambda 25 UV/Vis spectrophotometer (Perkin-Elmer, UK). SZ95 sebocytes cultured under serum and serum-free conditions were analyzed for LOX expression. SZ95-SF sebocytes expressed slightly higher basal levels of LOX compared to SZ95-S sebocytes (data not shown). […]

[4] = tested on: PPARγ and EMA protein in SZ95-SF cells; experiment: Western blot of PPARγ and EMA (sebocyte differentiation) in SZ95-SF cells; conditions: 24 hours
Description: as §1
(§2) For protein extraction, cells were lysed in RIPA buffer (50 mM Tris-HCl pH 7.4, 1% Nonidet P40, 0.25% deoxycholate, 150 mM NaCl, 1 mM EDTA, 1 mM PMSF, 1 mM Na3VO4, 5 mM NaF), supplemented with a protease inhibitor cocktail (Roche, Mannheim, Germany), for 30 minutes at 4° C., then sonicated. Total cell lysates were clarified by centrifugation at 12,000 rpm for 10 minutes at 4° C. and then stored at −80° C. until analysis.
(§3) Protein levels were measured by spectrophotometry, and protein (50 μg) was loaded and resolved using an acrylamide SDS-PAGE gel, and finally transferred onto a nitrocellulose membrane (Amersham Biosciences, Milan, Italy). Protein transfer efficiency was evaluated by Ponceau S staining (Sigma-Aldrich). […] Protein levels were quantified by measuring optical density of specific bands using a UVI-TEC System (Eppendorf, Hamburg, Germany). […]

SZ95 sebocytes [5] = experiment: Metabolic activity and cell viability of SZ95 sebocytes; conditions: SZ95-S or SZ95-SF sebocytes exposed to NAC-GED0507
Description: as §1
SZ95-SF and SZ95-S sebocytes were cultured for an additional 24 hours in the presence of 0.1 μM insulin and/or 1 mM of the PPARγ modulator N-acetyl-(S)-3-(4′-aminophenyl)-2-methoxypropionic acid (“NAC-GED0507”).

[6] = tested on: pAkt and pS6 (PI3K/Akt pathway) in SZ95 sebocytes; experiment: Western blot of insulin-induced pAkt and pS6 in SZ95 sebocytes; conditions: SZ95-SF cells, 0.1 μM insulin and 1 mM NAC-GED0507, 24 hours
Description: as §1, §2, §3

SZ95 sebocytes [7] = experiment: GC-MS analysis of fatty acid production (lipogenesis) in SZ95 sebocytes; conditions: insulin and NAC-GED0507, 48 hours or 72 hours
Description: as §1
Lipids were extracted from SZ95 sebocytes using a modified version of the protocol described in Bligh E G and Dyer W J, J Biochem Physiol, 1959. Lipids were extracted with chloroform: methanol (2:1) solution (2×1 mL) after the addition of butylhydroxytoluene to prevent oxidation of oxygen sensitive compounds. 5 μg of methylated tricosanoic acid was added as internal standard to control the analytical performance and to calculate the relative abundance of the fatty acids detected. Organic layers were collected and evaporated under nitrogen. Dried lipid extract was dissolved in 100 μL acetone/methanol/isopropanol (40:40:20) solution and 20 μL were used for the analysis of bound fatty acids (FA).
Bound fatty acids (FA) were analyzed as FA methyl esters (FAME) obtained after derivatization. For simultaneous saponification and methylation of bound FA, 250 μL KOH solution (0.5 M) in anhydrous methanol was added to the dried extract and incubated at 37° C. for 20 minutes with constant shaking. 0.5 mL HCl (0.25 M) was added to neutralize the alkaline reaction mixture. After vortexing, 0.25 mL K2SO4 (6.7%) and 1 mL hexane:isopropanol (3:2 v/v) solution containing 0.0025% BHT were added and vortexed. After centrifugation, the lipid enriched upper phase was transferred to an Eppendorf tube and evaporated under nitrogen. The dried FAME extract was dissolved in 50 μL n-hexane and analyzed by GC-MS to establish FA profiles in the lipid extracts (Thermo-Finnigan, Waltham, Mass., USA). Chromatographic separation was carried out on a HP-FFAP capillary column (Agilent Technologies, Santa Clara, Calif., USA; crosslinked FFAP, length 50 m, film thickness 0.52 μm). Helium was used as the carrier gas. The initial GC oven temperature was 40° C. and was linearly ramped up to 240° C. at 8° C./min. The total run time was 60 min. The injector and the GC-MS transfer lines were kept at 230° C. and 250° C., respectively. Total ion chromatograms (TIC) were acquired, and areas of single peaks, corresponding to the FAME, were integrated with the qualitative analysis software. Identity of the detected FAME was verified by comparison with authentic standards and matched with library spectral data.
SZ95-SF and SZ95-S sebocytes were also cultured for 48 hours or 72 hours in the presence of insulin and NAC-GED0507.

[8] = SZ95-SF cells, pre-treatment with NAC-GED0507

CO[C@@H](Cc1ccc(NC(C)=O)cc1)C(=O)O [NAC-GED0507, N-acetyl-(S)-3-(4′-aminophenyl)-2-methoxypropionic acid]
IL-6 cytokine release [1]: significantly reduced
increase in 5-HETE stimulated by insulin (SZ95 sebocytes [2]): countered the increase
increase in 15-HETE stimulated by insulin (SZ95 sebocytes [2]): countered the increase
up-regulation of lipidogenic genes (SREBP-1, FAS, FADS-2, SCD-1 mRNA) observed with insulin alone ([3]; 0.1 μM insulin and 1 mM NAC-GED0507, 24 hours): significantly inhibited
DGAT1 mRNA levels (decreased by insulin) ([3]; SZ95-SF cells, 0.1 μM insulin): countered the effects of insulin exposure
insulin-stimulated FADS2 mRNA expression [3, 8]: reduced the effect
insulin-stimulated SCD1 mRNA expression [3, 8]: reduced the effect
insulin-stimulated SREBP1 mRNA expression [3, 8]: reduced the effect
insulin-induced increase in LOX activity (lipoxygenase (LOX)): inhibited
EMA protein expression [4]: increase
PPARγ protein expression [4]: increase
cell viability (SZ95 sebocytes [5]): No significant changes
metabolic activity (SZ95 sebocytes [5]): No significant changes
insulin-induced pAkt [6]: significant decrease
insulin-induced pS6 [6]: significant decrease
production of mono-unsaturated fatty acids in response to insulin (SZ95 sebocytes [7]; SZ95-SF sebocytes): significantly inhibited
production of poly-unsaturated fatty acids in response to insulin (SZ95 sebocytes [7]; SZ95-SF sebocytes): significantly inhibited
total fatty acid synthesis stimulated by insulin (SZ95 sebocytes [7]; SZ95-SF sebocytes): significantly inhibited
inhibition of unsaturated fatty acid production in SZ95-SF in comparison to SZ95-S sebocytes (SZ95 sebocytes [7]): relatively more robust

— patent US20220000818A1, “COMPOSITIONS FOR USE IN PREVENTING ACNE” (Nogra Pharma Limited, priority 2019, published 2022)
